{
  "source": "patent US8575214B2",
  "about": "“MGlu 2/3 agonists” (Eli Lilly and Company, priority 2012, dated 2013)",
  "key": {"Male Sprague Dawley rats": {"test_system": "Male Sprague Dawley rats", "assay": "Reversal of colorectal distension-induced pain behaviors", "assay_type": "in vivo, rat", "settings": "90 minutes post dosing, mean ± SEM", "method": "Visceral pain in rats can be induced by distension of the colorectal cavity and pain monitored by accessing the reflex contraction of abdominal muscles. Measurement of abdominal muscle reflex contractions with pain caused by colorectal distension in the rat is performed substantially as described by Fioramonti et al. Neurogastroenterology and Motility (2003) 15, 363-369 and Urban et al. J. of Pharmacology and Exp. Ther. (1999) 290, 207-213. Male Sprague Dawley rats are surgically implanted with electromyographic (EMG) electrodes in the oblique abdominal muscle and allowed to recover for one week, during which animals are acclimated to handling and partial restraint to minimize effects of stress. Baseline EMG measurements are collected and recorded after the insertion into the rectum (8 cm) of a lubricated latex balloon attached to a pressure monitor/regulator to step the pressure between 20, 40, and 60 mm Hg for a 20 second duration with a 3 minute resting period between trials. A set of three exposures at each pressure is recorded before stepping the pressure up to the next level. Data are collected as the area under the curve for EMG reading (volts per second) during the pressure stimulations, and averaged over the three trials. A test compound (prodrug) is orally dosed within a range of 1.5 to 17 mg/kg 90 minutes prior to the beginning of the colorectal distension. Statistical significance is defined as a p value <0.05 in an analysis of covariance followed by a Dunnett's post hoc test. Table 3 below provides the statistically significant results for Example 10 run substantially as above."}, "rats [1]": {"test_system": "rats", "assay": "Reversal of CFA-induced mechanical hyperalgesia (Randall Sellito test)", "assay_type": "in vivo, rat", "settings": "mean ± SEM, p<0.05 vs vehicle", "method": "Induction of local inflammation in the rat hind paw will cause a persistent mechanical hyperalgesia that can be measured by determining the threshold to pressure stimuli to give a painful response. The method for complete Freund's adjuvant (CFA) induced mechanical hyperalgesia in rats is largely described in Iadarola et al. Brain Res. (1988) 455, 205-212. Rats are placed under isoflurane anesthesia while the right paw is injected with 50 μl of CFA (Sigma C5881, 1 mg/ml mycobacterium extract in 85% paraffin oil, 15% mannide monooleate) intraplantar. Animals are allowed to recover in soft bedding cages and mechanical hyperalgesia changes measured 24 hours post-CFA injection. Mechanical hyperalgesia (Randall Sellito Test) is determined by gently restraining the rat and placing the paw between the plinth and pusher (Ugo Basile Analgesy-meter). The gram force when the animal withdraws the paw is recorded.\nRats are tested for baseline response prior to CFA injection. Post-CFA response is tested the next morning (about 24 hours post injection of CFA). Rats are randomized based on post-CFA response with any rat showing a score of >150 grams excluded from further testing. A test compound (prodrug) is orally dosed within a range of 1.5 to 15 mg/kg and mechanical threshold for paw withdrawal is measured at 1 and 2 hours post dosing. Statistical significance is defined as a p value <0.05 in an analysis of covariance followed by a Dunnett's post hoc test for each time point. Table 2 below provides the statistically significant results for Example 10 run substantially as above."}, "male Sprague-Dawley rats": {"test_system": "male Sprague-Dawley rats", "assay": "Reversal of persistent pain induced by formalin injection", "assay_type": "in vivo", "settings": "po, 2 h, dosed two hours prior to intraplantar formalin, rat"}, "rats [2]": {"test_system": "rats", "assay": "Reversal of L5/L6 nerve ligation induced tactile allodynia", "assay_type": "in vivo, rat", "settings": "15 mg/kg orally, n=8, ±SEM", "method": "Unilateral ligation of nerves innervating the hind leg region will result in a chronic persistent pain manifested as tactile allodynia in rats. L5/L6 nerve ligation is performed (Kim et al. Pain (1992) 50, 355-363). Neuropathic injury is produced by tightly ligating the left L5 and L6 spinal nerves under gaseous anesthesia with a mixture of isoflurane (3% for induction and 2% for maintenance) and oxygen. After a minimum of 14 days after surgery, tactile allodynia is evaluated by measuring tactile sensitivity of the injured paw to von Frey filaments with incremental bending forces (0.3 to 15 g) (Chaplan et al. J. of Neuroscience Methods (1994) 53, 55-63). […] Baseline values are determined immediately prior to assessment of test compound. A test compound (prodrug) is orally dosed at 15 mg/kg and the tactile threshold for paw withdrawal is measured at 1, 2 and 4 hours post dosing. Data are expressed as response threshold in grams (g) and values are with standard errors of means (±SE mean) for each time point. Data are analyzed using an analysis of variance followed by a Dunnett's post hoc analysis and represent absolute change in pain threshold (Cmax=maximum Response Baseline) and expressed as Mean [log (maximum response)−log predose score)] (g)."}},
  "data": [
    {"smiles": "C[C@H](N)C(=O)N[C@@]1(C(=O)O)CC2(CC2)[C@H]2[C@H](C(=O)O)[C@H]21", "note": "[Example 10, (1S,2S,5R,6S)-2-[[(2S)-2-Aminopropanoyl]amino]spiro[bicyclo[3.1.0]hexane-4,1′-cyclopropane]-2,6-dicarboxylic acid dihydrate]", "values": [
      {"measurement": "AUC of EMG reading for abdominal muscle with 60 mmHg colorectal pressure", "setting": "Male Sprague Dawley rats; 1.5 mg/kg po, pre-dosing baseline 853 ± 142, vehicle 849 ± 65", "result": "618 ± 92", "unit": "μV/sec"},
      {"measurement": "AUC of EMG reading for abdominal muscle with 60 mmHg colorectal pressure", "setting": "Male Sprague Dawley rats; 4.5 mg/kg po, pre-dosing baseline 887 ± 152, p<0.05 vs vehicle", "result": "531 ± 99", "unit": "μV/sec"},
      {"measurement": "AUC of EMG reading for abdominal muscle with 60 mmHg colorectal pressure", "setting": "Male Sprague Dawley rats; 17 mg/kg po, pre-dosing baseline 773 ± 134, p<0.05 vs vehicle", "result": "266 ± 87", "unit": "μV/sec"},
      {"measurement": "Paw withdrawal Threshold", "setting": "rats [1]; 1.5 mg/kg po, one hour post dosing, group pre CFA 243 ± 5, 24 hours post CFA 113 ± 8", "result": "180 ± 14 grams, force"},
      {"measurement": "Paw withdrawal Threshold", "setting": "rats [1]; 1.5 mg/kg po, two hours post dosing, group pre CFA 243 ± 5, 24 hours post CFA 113 ± 8", "result": "186 ± 19 grams, force"},
      {"measurement": "Paw withdrawal Threshold", "setting": "rats [1]; 4.5 mg/kg po, one hour post dosing, group pre CFA 221 ± 10, 24 hours post CFA 114 ± 9", "result": "153 ± 20 grams, force"},
      {"measurement": "Paw withdrawal Threshold", "setting": "rats [1]; 4.5 mg/kg po, two hours post dosing, group pre CFA 221 ± 10, 24 hours post CFA 114 ± 9", "result": "221 ± 20 grams, force"},
      {"measurement": "Paw withdrawal Threshold", "setting": "rats [1]; 15 mg/kg po, one hour post dosing, group pre CFA 244 ± 4, 24 hours post CFA 108 ± 12, cut-off 250 grams", "result": "250 ± 0 grams, force"},
      {"measurement": "Paw withdrawal Threshold", "setting": "rats [1]; 15 mg/kg po, two hours post dosing, group pre CFA 244 ± 4, 24 hours post CFA 108 ± 12", "result": "232 ± 15 grams, force"},
      {"measurement": "ED50", "setting": "male Sprague-Dawley rats", "result": 4.8, "unit": "mg/kg"},
      {"measurement": "mechanical threshold (von Frey, paw withdrawal)", "setting": "rats [2]; four hours post dosing, vehicle 2.35±0.62", "result": "8.63 ± 1.98", "unit": "g"},
      {"measurement": "mechanical threshold (von Frey, paw withdrawal)", "setting": "rats [2]; one hour post dosing, vehicle 1.50±0.60", "result": "9.06 ± 2.26", "unit": "g"},
      {"measurement": "mechanical threshold (von Frey, paw withdrawal)", "setting": "rats [2]; two hours post dosing, vehicle 1.34±0.75", "result": "12.31 ± 1.86", "unit": "g"}
    ]}
  ]
}
